Experimental data published in patent publication US20250223270A1, “Sulfonamide Compounds and Use Thereof” (Taiho Pharmaceutical Co., Ltd., priority 2017, published 2025).
≈ marks a conversion by molar mass, not a printed value. Entries after “also recorded” stand apart in the source; their conditions may differ.

Assays:
Assay type in all cases: physicochemical
[1] = Optical purity stability by chiral HPLC; conditions: 40° C./75% RH (closed and open condition), 24 hours
Protocol: The optical purity was also measured by the following HPLC condition • Detector: UV at 240 nm • Column: […] IE (4.6×250 mm, 5 μm)/Daicel corp. • Column temperature: 40° C. • Mobile phase: n-hexane/ethanol/ethanolamine/acetic acid (65:35:0.5:0.2) • Flow rate: 1.0 mL/min • Injection: 5 μL • Sample temperature: 5° C. • Time span of measurement: 40 min
Compound—RR, RS,SS: 0.05%
The optical purity was measured also with added 0.2% optical isomer.
The solid stability of the exemplary sample of the present invention and the free form obtained
above was tested before and after the sample was stored at 40° C./75% RH (closed and open condition) for 24 hours.

[2] = Charging property (adhesion to spatula or glass bottle); conditions: adhesion to a spatula or a glass bottle
[3] = Hygroscopicity, moisture adsorption/desorption test; conditions: for hygroscopicity: moisture adsorption/desorption test, FIG. 8; for mass change in moisture adsorption/desorption test: relative humidity of 95%, 25° C.
Protocol: The moisture adsorption/desorption test was carried out according to the following conditions.
Approximately 10 to 15 mg of the sample was filled in a dedicated quartz holder, and the weight of each sample at each humidity was continuously measured and recorded under the following conditions.

[4] = Solid stability test, 40° C./75% RH, 70° C., 80° C., by HPLC
Protocol: (§1) The solid stability of the exemplary sample of the present invention and the free form obtained above was tested after the sample was stored at 40° C./75% RH (open condition), 70° C. (closed) and 80° C. (closed) after 2 weeks or 4 weeks. Open condition means that the lid of the glass bottle was removed and covered with Kimwipe, 70° C. and 80° C. (closed). • Measurement points: 2 weeks and 4 weeks • Storage amount: about 30 mg • Storage container: brown glass bottle
(§2) The amount of analogous substances in the sample solution was measured by HPLC analysis. The handling of the device including data processing was in accordance with the manual provided with the device. (i.e., Prominence-i). About 2 mg of the exemplary sample of the present invention was dissolve in 4 mL of mobile phase A/mobile phase B mixture (17:3), and the resulting mixture was used as sample solution. • Column: CAPCELL PAK ADME manufactured by Shiseido (4.6×150 mm, 3 μm) • UV detection: 220 nm • Column temperature: 40° C. • Column flow rate: 1.0 mL/min • Mobile phase: A; 5 mM phosphate buffer, pH 6.5/Acetonitrile (4:1) • B: acetonitrile • Injection volume: 5 μL • Sample cooler temperature: 5° C. • Collection time: 40 minutes

[5] = Stability test, 40° C./75% RH, analogous substances by HPLC
Protocol: as §2, with “6.2/Acetonitrile” for “6.5/Acetonitrile”
as §1, with “(closed” for “(open condition), 70° C. (closed)”, “open condition) for” for “80° C. (closed) after”, “Kimwipe.” for “Kimwipe, 70° C. and 80° C. (closed).”, “50 to 60” for “30”

[6] = Solubility test, 37° C., 2 hours; conditions: for Solubility: 2 hours
Protocol: About 15 mg of the exemplary sample of the present invention was added to 1 mL of each solvent and was swelled at 37° C. for 2 hours under light resistant condition. After centrifugation, each supernatant was filtered, and 0.7 mL of a mixture of water and acetonitrile (1:1) was added to 0.1 ml of the filtrate.
Following of mobile phase: Control the gradient by mixing the mobile phase A and B as directed in the following table below • Flow rate: 1.0 mL per minutes • Time span of measurement: For 12 minutes after injection

Row | change in the optical purity [1] | mass change in moisture adsorption/desorption test [3] | Chemical Purity (%) ([4]; 40° C. 75% RH (Open), 4wks) | Total amount of analogous substances (%) ([4]; 40° C. 75% RH (Open), 4wks) | Chemical Purity (%) ([4]; 70° C. (Closed), 2 wks) | Total amount of analogous substances (%) ([4]; 70° C. (Closed), 2 wks) | Chemical Purity (%) ([4]; 70° C. (Closed), 4 wks) | Total amount of analogous substances (%) ([4]; 70° C. (Closed), 4 wks) | Chemical Purity (%) ([4]; 80° C. (Closed), 2 wks) | Total amount of analogous substances (%) ([4]; 80° C. (Closed), 2 wks) | Chemical Purity (%) ([4]; 80° C. (Closed), 4 wks) | Total amount of analogous substances (%) ([4]; 80° C. (Closed), 4 wks) | Chemical Purity (%) ([4]; Initial) | Total amount of analogous substances (%) ([4]; Initial) | Chemical Purity (%) ([5]; 40° C./75% RH (Closed), 2 wks) | Total amount of analogous substances (%) ([5]; 40° C./75% RH (Closed), 2 wks) | Chemical Purity (%) ([5]; 40° C./75% RH (Closed), 4 wks) | Total amount of analogous substances (%) ([5]; 40° C./75% RH (Closed), 4 wks) | Chemical Purity (%) ([5]; 40° C./75% RH (Open), 2 wks) | Structure (SMILES) | charging property [2] | further results
1 | No significant change | about 3.8% | 97.97% | 2.03% | 97.31% | 2.69% | 96.39% | 3.61% | 95.90% | 4.10% | 92.92% | 7.08% | 98.33% | 1.67% | 98.42% | 1.58% | 98.16% | 1.84% | 98.35% | Cc1ccc(F)c([C@@H](C)[C@H](NS(=O)(=O)c2ccc(Cl)cc2C(N)=O)c2n[nH]c(=O)o2)c1C [Comparative Example, 5-chloro-2-(N-((1S,2R)-2-(6-fluoro-2,3-dimethylphenyl)-1-(5-oxo-4,5-dihydro-1,3,4-oxadiazol-2-yl)propyl)sulfamoyl)benzamide] | high charging property | charging property ([2]; listed as free form): high charging property; hygroscopicity ([3]; listed as free form): had hygroscopicity; Total amount of analogous substances (%) ([5]; 40° C./75% RH (Open), 2 wks): 1.65%; Chemical Purity (%) ([5]; 40° C./75% RH (Open), 4 wks): 98.14%; Total amount of analogous substances (%) ([5]; 40° C./75% RH (Open), 4 wks): 1.86%; Chemical Purity (%) ([5]; Initial): 98.49%; Total amount of analogous substances (%) ([5]; Initial): 1.51%
2 | No significant change | about 0.1% | 99.69% | 0.31% | 99.67% | 0.33% | 99.68% | 0.32% | 99.66% | 0.34% | 99.66% | 0.34% | 99.69% | 0.31% | 98.67% | 1.33% | 98.62% | 1.38% | 98.67% | Cc1ccc(F)c([C@@H](C)[C@H](NS(=O)(=O)c2ccc(Cl)cc2C(N)=O)c2n[nH]c(=O)o2)c1C [Exemplary Sample, 5-chloro-2-(N-((1S,2R)-2-(6-fluoro-2,3-dimethylphenyl)-1-(5-oxo-4,5-dihydro-1,3,4-oxadiazol-2-yl)propyl)sulfamoyl)benzamide] | weak charging property; also recorded: low charging property | Solubility ([6]; 0.5% HPMC, 37° C.): 130 µg/mL (≈ 269 µM); Solubility ([6]; Acetate buffer (50 mM, pH 4.0), 37° C.): 260 µg/mL (≈ 538 µM); Solubility ([6]; Second fluid for dissolution test, pH 6.8, 37° C.): 610 µg/mL (≈ 1260 µM); change on XRD pattern ([6]; after 2 hr solubility study): No significant change; hygroscopicity [3]: almost no hygroscopicity; Total amount of analogous substances (%) ([5]; 40° C./75% RH (Open), 2 wks): 1.33%; Chemical Purity (%) ([5]; 40° C./75% RH (Open), 4 wks): 98.60%; Total amount of analogous substances (%) ([5]; 40° C./75% RH (Open), 4 wks): 1.40%; Chemical Purity (%) ([5]; Initial): 98.67%; Total amount of analogous substances (%) ([5]; Initial): 1.33%
